According to patent US20230173076A1, “METABOLICALLY STABLE PEPTIDE ANALOGS” (UNIVERSITÉ DE STRASBOURG, priority 2016, published 2023):
Positions of bridges follow the written chain, without caps; N, C: chain ends. Non-standard residues stand in square brackets, D forms with d. Residues, ends and D or L forms follow the SMILES beside them. ξ: configuration not given here. *: point of attachment. X1 = CCN([C@@H](C)C(=O)C[C@@H](CCCCNC(=O)CCC(F)(F)C(F)(F)C(F)(F)C(F)(F)C(F)(F)C(F)(F)C(F)(F)C(F)(F)F)C(=O)NCC(N)=O)*; Ile(3ξ) = CCC(C)[C@H](N)C(=O)O

Assays:
[1] = Solubility study in water by visual observation
Protocol: (§1) The resulting solution was vortexed 1 min following by 1 min in bath sonication. Solubility was then assessed by visual observation of the resulting dispersion (Clear/Cloudy and presence of particulates).

[2] = Human plasma stability (HPLC-MS/MS); conditions: 37° C.; for Human plasma stability (t1/2): 1 μM; for half-life at 1 μM: human, plasma, Human plasma stability (t1/2)
Protocol: (§2) This procedure is designed to determine the stability of a test compound in blood or plasma from human or animal species in a 96-well plate format. The test compound is quantified at 5 time points by HPLC-MS/MS analysis.
(§3) Test concentration: 1 μM with a final DMSO concentration of 0.5%.
(§4) Experimental protocol : Blood or plasma are pre-warmed at 37° C. water bath for 5 min, followed by addition of the test compound. The incubation is performed in a 37° C. water bath for 2 h. An aliquot of the incubation mixture is transferred to acetonitrile at 0, 0.5, 1, 1.5 and 2 h, respectively. Samples are then mixed and centrifuged. Supernatants are used for HPLC-MS/MS analysis. Reference compounds Propoxycaine and propantheline are tested simultaneously with the test compound in each assay. Analytical methods Samples are analyzed by HPLC-MS/MS using selected reaction monitoring. The HPLC system consists of a binary LC pump with autosampler, a C-18 column, and a gradient. Conditions may be adjusted as necessary. Data analysis Peak areas corresponding to the test compound are recorded. The compound remaining (%) is calculated by comparing the peak area at each time point to time zero. The half-life is calculated from the slope of the initial linear range of the logarithmic curve of compound remaining (%) vs. time, assuming first order kinetics
(§5) Test concentration: 1 μM with a final DMSO concentration of 0.5%. Experimental protocol: Blood or plasma are pre-warmed at 37° C. water bath for 5 min, followed by addition of the test compound. The incubation is performed in a 37° C. water bath for 2 h. An aliquot of the incubation mixture is transferred to acetonitrile at 0, 0.5, 1, 1.5 and 2 h, respectively. Samples are then mixed and centrifuged. Supernatants are used for HPLC-MS/MS analysis. Reference compounds Propoxycaine and propantheline are tested simultaneously with the test compound in each assay. Analytical methods Samples are analyzed by HPLC-MS/MS using selected reaction monitoring. The HPLC system consists of a binary LC pump with autosampler, a C-18 column, and a gradient. Conditions may be adjusted as necessary. Data analysis Peak areas corresponding to the test compound are recorded. The compound remaining (%) is calculated by comparing the peak area at each time point to time zero. The half-life is calculated from the slope of the initial linear range of the logarithmic curve of compound remaining (%) vs. time, assuming first order kinetics
(§6) Test concentration: 1 μM with a final DMSO concentration of 0.5%. Experimental protocol: Blood or plasma are pre-warmed at 37° C. water bath for 5 min, followed by addition of the test compound. The incubation is performed in a 37° C. water bath for 2 h. An aliquot of the incubation mixture is transferred to acetonitrile at 0, 0.5, 1, 1.5 and 2 h, respectively. Samples are then mixed and centrifuged. Supernatants are used for HPLC-MS/MS analysis. Reference compounds Propoxycaine and propantheline are tested simultaneously with the test compound in each assay. Analytical methods Samples are analyzed by HPLC-MS/MS using selected reaction monitoring. The HPLC system consists of a binary LC pump with autosampler, a C-18 column, and a gradient. Conditions may be adjusted as necessary. Data analysis Peak areas corresponding to the test compound are recorded. The compound remaining (%) is calculated by comparing the peak area at each time point to time zero. The half-life is calculated from the slope of the initial linear range of the logarithmic curve of compound remaining (%) vs. time, assuming first order kinetics.

[3] = physchem
Protocol: as §1

[4] = target: T1, human vasopressin Oxytocin receptor (Homo sapiens, UniProt P30559); test: Radioligand binding assay, human oxytocin receptor in transfected Chem-1 cells; conditions: read-out: Affinity % of inhibition à 10 nM
T1 construct: expressed in transfected cells; host or cells: Chem-1 cells (membrane homogenates)
T1 sequence (P30559 1-389): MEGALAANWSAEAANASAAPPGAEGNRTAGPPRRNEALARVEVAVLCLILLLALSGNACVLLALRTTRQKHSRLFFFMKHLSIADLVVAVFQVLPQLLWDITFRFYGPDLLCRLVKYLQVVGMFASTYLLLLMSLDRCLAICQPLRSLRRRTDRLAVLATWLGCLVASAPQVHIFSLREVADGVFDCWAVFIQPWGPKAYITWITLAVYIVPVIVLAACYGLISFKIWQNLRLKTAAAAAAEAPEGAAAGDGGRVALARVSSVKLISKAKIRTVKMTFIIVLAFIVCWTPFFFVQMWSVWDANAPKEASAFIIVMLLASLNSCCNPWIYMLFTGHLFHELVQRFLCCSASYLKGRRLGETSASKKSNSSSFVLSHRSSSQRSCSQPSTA
Protocol: Experimental protocol: […] Following incubation, the samples are filtered rapidly under vacuum through glass fiber filters (GF/B, Packard) presoaked with 0.3% PEI and rinsed several times with ice-cold 50 mM Tris-HCl and 0.1% BSA using a 96-sample cell harvester (Unifilter, Packard). The filters are dried then counted for radioactivity in a scintillation counter (Topcount, Packard) using a scintillation cocktail (Microscint 0, Packard). The results are expressed as a percent inhibition of the control radioligand specific binding.

[5] = in vitro; conditions: human, plasma, Human plasma stability (t1/2)
Protocol: as §2, §3, §4, §5, §6

solubility at 2 min [1]	SMILES	half-life at 1 μM ([2]; apelin analogs table)	solubility at 2 min [3]	inhibition at 0.01 µM [4]	further results
> 100 µM	CC[C@H](C)[C@H](NC(=O)[C@H](Cc1ccc(O)cc1)NC(=O)[C@@H](NC(=O)[C@H](CCCNC(=N)N)NC(=O)[C@@H](N)CC(=O)O)C(C)C)C(=O)N[C@@H](Cc1cnc[nH]1)C(=O)N1CCC[C@H]1C(=O)N[C@@H](Cc1ccccc1)C(=O)O [Angiotensin II, reference compound]				
> 100 µM	CC[C@H](C)[C@H](NC(=O)[C@H](Cc1ccc(O)cc1)NC(=O)[C@@H](NC(=O)[C@H](CCCNC(=N)N)NC(=O)[C@H](CC(=O)O)NC(=O)CCC(F)(F)C(F)(F)C(F)(F)C(F)(F)C(F)(F)C(F)(F)C(F)(F)C(F)(F)F)C(C)C)C(=O)N[C@@H](Cc1cnc[nH]1)C(=O)N1CCC[C@H]1C(=O)N[C@@H](Cc1ccccc1)C(=O)O [LE120]				Human plasma stability (t1/2) ([2]; angiotensin II analogs table): >1440 min; half-life at 1 μM ([2]; angiotensin II analogs table): > 1440 min
	CSCC[C@H](NC(=O)[C@@H]1CCCN1C(=O)CNC(=O)[C@H](CCCCN)NC(=O)[C@H](Cc1c[nH]cn1)NC(=O)[C@H](CO)NC(=O)[C@H](CC(C)C)NC(=O)[C@H](CCCNC(=N)N)NC(=O)[C@@H]1CCCN1C(=O)[C@H](CCCNC(=N)N)NC(=O)[C@H](CCC(N)=O)NC(=O)CCC(F)(F)C(F)(F)C(F)(F)C(F)(F)C(F)(F)C(F)(F)C(F)(F)C(F)(F)F)C(=O)N1CCC[C@H]1C(=O)N[C@@H](Cc1ccccc1)C(=O)O [LE-122]	> 1240 min	> 100 µM		Human plasma stability (t1/2) ([2]; apelin analogs table): 1241 min
	CSCC[C@H](NC(=O)[C@@H]1CCCN1C(=O)CNC(=O)[C@H](CCCCN)NC(=O)[C@H](Cc1c[nH]cn1)NC(=O)[C@H](CO)NC(=O)[C@H](CC(C)C)NC(=O)[C@H](CCCNC(=N)N)NC(=O)[C@@H]1CCCN1C(=O)[C@H](CCCNC(=N)N)NC(=O)[C@H](CCC(N)=O)NC(=O)[C@@H](N)CCCCNC(=O)CCC(F)(F)C(F)(F)C(F)(F)C(F)(F)C(F)(F)C(F)(F)C(F)(F)C(F)(F)F)C(=O)N1CCC[C@H]1C(=O)N[C@@H](Cc1ccccc1)C(=O)O [LE-124]	357 min			
	CC[C@H](C)[C@@H]1NC(=O)[C@H](Cc2ccc(O)cc2)NC(=O)[C@@H](N)CSSC[C@@H](C(=O)N2CCC[C@H]2C(=O)N[C@@H](CC(C)C)C(=O)NCC(N)=O)NC(=O)[C@H](CC(N)=O)NC(=O)[C@H](CCC(N)=O)NC1=O [Oxytocin, reference compound]		> 100 µM	102%	half-life at 1 μM [5]: 147 min
	CCC(C)[C@@H]1NC(=O)[C@H](Cc2ccc(O)cc2)NC(=O)[C@@H](N)CSSC[C@@H](C(=O)N(CC)[C@@H](C)C(=O)C[C@@H](CCCCNC(=O)CCC(F)(F)C(F)(F)C(F)(F)C(F)(F)C(F)(F)C(F)(F)C(F)(F)C(F)(F)F)C(=O)NCC(N)=O)NC(=O)[C@H](CC(N)=O)NC(=O)[C@H](CCC(N)=O)NC1=O (some centres unmarked) [SR-11-74] (H-CY[Ile(3ξ)]QNC-X1; disulfide 1-6)		> 100 µM	91.3%	half-life at 1 μM ([2]; oxytocin analogs table): 239 min
